For orientation: inhibition means the share of the control response that was lost under treatment.

This is an account of results in ChEMBL document CHEMBL2424622, “Development of amino-pyrimidine inhibitors of c-Jun N-terminal kinase (JNK): kinase profiling guided optimization of a 1,2,3-benzotriazole lead” (Bioorg Med Chem Lett, 2013).

The structures appear in SMILES notation. Bounds are passed on as bounds.

The target in assay [1] is Glycogen synthase kinase-3 beta (Homo sapiens, UniProt P49841). The experiment in a line: Competitive binding affinity to GSK3beta (unknown origin) at 10 uM in presence of ATP relative to control.
For assay [2], the target named is Mitogen-activated protein kinase 6 (Homo sapiens, UniProt Q16659). The experiment in a line: Competitive binding affinity to ERK3 (unknown origin) at 10 uM in presence of ATP relative to control.
For assay [3], the species on record is Homo sapiens. The experiment in a line: Competitive binding affinity to EGFR L747 to T751 deletion mutant, Sins mutant (unknown origin) at 10 uM in presence of ATP relative to control.
Assay [4] deals with T1, Myosin-IIIb (Homo sapiens) (UniProt Q8WXR4).
T1 sequence (whole entry): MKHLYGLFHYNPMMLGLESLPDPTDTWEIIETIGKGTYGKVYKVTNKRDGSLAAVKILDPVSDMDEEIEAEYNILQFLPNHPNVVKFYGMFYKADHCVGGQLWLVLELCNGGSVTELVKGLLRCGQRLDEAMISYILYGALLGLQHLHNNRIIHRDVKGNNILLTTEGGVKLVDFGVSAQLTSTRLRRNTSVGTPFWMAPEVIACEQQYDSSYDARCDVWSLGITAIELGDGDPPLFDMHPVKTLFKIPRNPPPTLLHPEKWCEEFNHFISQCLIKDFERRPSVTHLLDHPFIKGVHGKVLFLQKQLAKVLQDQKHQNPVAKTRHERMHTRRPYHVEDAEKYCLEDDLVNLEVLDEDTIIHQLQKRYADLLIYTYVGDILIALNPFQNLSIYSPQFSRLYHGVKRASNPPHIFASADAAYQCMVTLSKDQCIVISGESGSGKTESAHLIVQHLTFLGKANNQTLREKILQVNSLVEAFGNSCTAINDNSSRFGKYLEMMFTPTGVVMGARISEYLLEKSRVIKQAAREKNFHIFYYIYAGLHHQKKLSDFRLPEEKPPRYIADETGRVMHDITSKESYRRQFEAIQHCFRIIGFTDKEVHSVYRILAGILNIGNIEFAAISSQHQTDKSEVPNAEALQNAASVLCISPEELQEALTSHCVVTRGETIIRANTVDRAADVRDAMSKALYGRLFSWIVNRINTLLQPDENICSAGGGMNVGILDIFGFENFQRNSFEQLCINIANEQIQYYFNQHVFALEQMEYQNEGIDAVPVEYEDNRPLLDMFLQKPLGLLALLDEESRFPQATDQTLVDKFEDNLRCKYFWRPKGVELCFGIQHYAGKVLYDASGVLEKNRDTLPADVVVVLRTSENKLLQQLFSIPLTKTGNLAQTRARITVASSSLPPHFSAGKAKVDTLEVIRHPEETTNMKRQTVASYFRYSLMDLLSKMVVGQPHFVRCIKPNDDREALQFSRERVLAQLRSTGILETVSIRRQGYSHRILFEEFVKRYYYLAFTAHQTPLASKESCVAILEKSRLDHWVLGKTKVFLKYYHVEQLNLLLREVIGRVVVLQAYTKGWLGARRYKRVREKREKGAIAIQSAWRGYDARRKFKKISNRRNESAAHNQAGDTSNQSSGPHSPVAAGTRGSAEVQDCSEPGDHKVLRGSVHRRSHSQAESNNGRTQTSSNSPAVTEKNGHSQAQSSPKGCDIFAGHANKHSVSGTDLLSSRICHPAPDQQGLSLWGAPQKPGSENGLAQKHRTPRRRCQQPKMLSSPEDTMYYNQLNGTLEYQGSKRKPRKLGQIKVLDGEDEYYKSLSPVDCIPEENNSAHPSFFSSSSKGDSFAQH
The assay is described as follows: Competitive binding affinity to MYO3B (unknown origin) at 10 uM in presence of ATP relative to control.

In assay [5] the test system is Mast/stem cell growth factor receptor Kit (Homo sapiens), P10721 [V559D,T670I]. The experiment in a line: Competitive binding affinity to KIT V559D/T670I double mutant (unknown origin) at 10 uM in presence of ATP relative to control.
For assay [6], the target named is Phosphatidylinositol 4-phosphate 5-kinase type-1 alpha (Homo sapiens) (UniProt Q99755). The assay is described as follows: Competitive binding affinity to PIP5K1A (unknown origin) at 10 uM in presence of ATP relative to control.
The target of assay [7] is T2, Dual specificity mitogen-activated protein kinase kinase 3 (Homo sapiens) (UniProt P46734).
T2 sequence (whole entry): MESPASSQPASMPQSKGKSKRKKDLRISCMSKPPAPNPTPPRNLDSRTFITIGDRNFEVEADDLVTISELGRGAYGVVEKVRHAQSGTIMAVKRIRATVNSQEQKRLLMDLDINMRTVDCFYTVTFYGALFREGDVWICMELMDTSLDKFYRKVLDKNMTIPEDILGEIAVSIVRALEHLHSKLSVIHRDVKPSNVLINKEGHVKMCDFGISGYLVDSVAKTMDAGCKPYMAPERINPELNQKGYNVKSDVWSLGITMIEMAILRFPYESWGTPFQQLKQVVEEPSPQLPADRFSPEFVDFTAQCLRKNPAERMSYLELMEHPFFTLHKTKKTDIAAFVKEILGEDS
The experiment in a line: Competitive binding affinity to MEK3 (unknown origin) at 10 uM in presence of ATP relative to control.

For assay [8], the target named is MAP/microtubule affinity-regulating kinase 3 (Homo sapiens) (UniProt P27448). The assay is described as follows: Competitive binding affinity to MARK3 (unknown origin) at 10 uM in presence of ATP relative to control.
Assay [9] addresses Serine/threonine-protein kinase 10 (Homo sapiens) (UniProt O94804). The experiment in a line: Competitive binding affinity to LOK (unknown origin) at 10 uM in presence of ATP relative to control.
Assay [10] addresses Myosin light chain kinase, smooth muscle (Homo sapiens) (UniProt Q15746). The assay is described as follows: Competitive binding affinity to MLCK (unknown origin) at 10 uM in presence of ATP relative to control.

Glycogen synthase kinase-3 beta, sequence (P49841 whole entry, looked up): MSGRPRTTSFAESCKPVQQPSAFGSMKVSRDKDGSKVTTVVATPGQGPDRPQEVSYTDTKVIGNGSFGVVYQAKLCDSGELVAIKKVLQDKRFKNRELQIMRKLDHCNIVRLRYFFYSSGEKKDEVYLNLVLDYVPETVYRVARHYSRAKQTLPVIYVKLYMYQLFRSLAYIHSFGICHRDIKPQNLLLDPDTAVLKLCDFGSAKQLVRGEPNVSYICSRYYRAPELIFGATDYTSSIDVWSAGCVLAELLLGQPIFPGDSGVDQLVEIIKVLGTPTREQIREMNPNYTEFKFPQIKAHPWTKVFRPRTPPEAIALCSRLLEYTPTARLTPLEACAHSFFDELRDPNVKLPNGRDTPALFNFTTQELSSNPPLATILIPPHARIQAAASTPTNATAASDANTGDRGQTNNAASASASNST
Serine/threonine-protein kinase 10 (Homo sapiens), sequence (O94804 whole entry, looked up): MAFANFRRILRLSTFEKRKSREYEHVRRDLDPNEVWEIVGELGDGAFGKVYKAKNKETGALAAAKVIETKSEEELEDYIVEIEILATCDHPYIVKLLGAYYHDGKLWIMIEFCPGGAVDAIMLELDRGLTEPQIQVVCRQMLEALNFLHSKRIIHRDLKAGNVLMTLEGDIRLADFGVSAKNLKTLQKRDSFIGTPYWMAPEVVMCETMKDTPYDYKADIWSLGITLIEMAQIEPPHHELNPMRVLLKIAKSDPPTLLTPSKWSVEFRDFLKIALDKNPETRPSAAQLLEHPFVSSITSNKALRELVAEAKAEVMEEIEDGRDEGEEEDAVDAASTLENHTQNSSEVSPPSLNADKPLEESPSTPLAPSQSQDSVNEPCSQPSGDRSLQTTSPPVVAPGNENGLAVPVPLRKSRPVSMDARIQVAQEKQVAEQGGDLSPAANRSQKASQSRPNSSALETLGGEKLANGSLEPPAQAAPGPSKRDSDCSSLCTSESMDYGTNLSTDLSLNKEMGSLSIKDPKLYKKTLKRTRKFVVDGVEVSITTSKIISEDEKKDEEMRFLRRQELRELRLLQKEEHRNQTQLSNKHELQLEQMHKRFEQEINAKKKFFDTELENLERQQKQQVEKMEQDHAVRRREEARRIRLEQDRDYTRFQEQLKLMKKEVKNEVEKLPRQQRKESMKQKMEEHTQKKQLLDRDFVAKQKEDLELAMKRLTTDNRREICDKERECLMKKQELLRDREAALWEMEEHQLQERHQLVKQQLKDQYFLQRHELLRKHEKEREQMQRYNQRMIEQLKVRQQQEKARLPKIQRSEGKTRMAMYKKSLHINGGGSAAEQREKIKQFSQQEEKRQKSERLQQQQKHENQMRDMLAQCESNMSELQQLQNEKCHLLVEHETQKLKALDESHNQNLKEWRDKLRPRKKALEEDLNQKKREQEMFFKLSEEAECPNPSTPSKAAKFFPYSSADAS
Myosin light chain kinase, smooth muscle (Homo sapiens), sequence (Q15746 whole entry): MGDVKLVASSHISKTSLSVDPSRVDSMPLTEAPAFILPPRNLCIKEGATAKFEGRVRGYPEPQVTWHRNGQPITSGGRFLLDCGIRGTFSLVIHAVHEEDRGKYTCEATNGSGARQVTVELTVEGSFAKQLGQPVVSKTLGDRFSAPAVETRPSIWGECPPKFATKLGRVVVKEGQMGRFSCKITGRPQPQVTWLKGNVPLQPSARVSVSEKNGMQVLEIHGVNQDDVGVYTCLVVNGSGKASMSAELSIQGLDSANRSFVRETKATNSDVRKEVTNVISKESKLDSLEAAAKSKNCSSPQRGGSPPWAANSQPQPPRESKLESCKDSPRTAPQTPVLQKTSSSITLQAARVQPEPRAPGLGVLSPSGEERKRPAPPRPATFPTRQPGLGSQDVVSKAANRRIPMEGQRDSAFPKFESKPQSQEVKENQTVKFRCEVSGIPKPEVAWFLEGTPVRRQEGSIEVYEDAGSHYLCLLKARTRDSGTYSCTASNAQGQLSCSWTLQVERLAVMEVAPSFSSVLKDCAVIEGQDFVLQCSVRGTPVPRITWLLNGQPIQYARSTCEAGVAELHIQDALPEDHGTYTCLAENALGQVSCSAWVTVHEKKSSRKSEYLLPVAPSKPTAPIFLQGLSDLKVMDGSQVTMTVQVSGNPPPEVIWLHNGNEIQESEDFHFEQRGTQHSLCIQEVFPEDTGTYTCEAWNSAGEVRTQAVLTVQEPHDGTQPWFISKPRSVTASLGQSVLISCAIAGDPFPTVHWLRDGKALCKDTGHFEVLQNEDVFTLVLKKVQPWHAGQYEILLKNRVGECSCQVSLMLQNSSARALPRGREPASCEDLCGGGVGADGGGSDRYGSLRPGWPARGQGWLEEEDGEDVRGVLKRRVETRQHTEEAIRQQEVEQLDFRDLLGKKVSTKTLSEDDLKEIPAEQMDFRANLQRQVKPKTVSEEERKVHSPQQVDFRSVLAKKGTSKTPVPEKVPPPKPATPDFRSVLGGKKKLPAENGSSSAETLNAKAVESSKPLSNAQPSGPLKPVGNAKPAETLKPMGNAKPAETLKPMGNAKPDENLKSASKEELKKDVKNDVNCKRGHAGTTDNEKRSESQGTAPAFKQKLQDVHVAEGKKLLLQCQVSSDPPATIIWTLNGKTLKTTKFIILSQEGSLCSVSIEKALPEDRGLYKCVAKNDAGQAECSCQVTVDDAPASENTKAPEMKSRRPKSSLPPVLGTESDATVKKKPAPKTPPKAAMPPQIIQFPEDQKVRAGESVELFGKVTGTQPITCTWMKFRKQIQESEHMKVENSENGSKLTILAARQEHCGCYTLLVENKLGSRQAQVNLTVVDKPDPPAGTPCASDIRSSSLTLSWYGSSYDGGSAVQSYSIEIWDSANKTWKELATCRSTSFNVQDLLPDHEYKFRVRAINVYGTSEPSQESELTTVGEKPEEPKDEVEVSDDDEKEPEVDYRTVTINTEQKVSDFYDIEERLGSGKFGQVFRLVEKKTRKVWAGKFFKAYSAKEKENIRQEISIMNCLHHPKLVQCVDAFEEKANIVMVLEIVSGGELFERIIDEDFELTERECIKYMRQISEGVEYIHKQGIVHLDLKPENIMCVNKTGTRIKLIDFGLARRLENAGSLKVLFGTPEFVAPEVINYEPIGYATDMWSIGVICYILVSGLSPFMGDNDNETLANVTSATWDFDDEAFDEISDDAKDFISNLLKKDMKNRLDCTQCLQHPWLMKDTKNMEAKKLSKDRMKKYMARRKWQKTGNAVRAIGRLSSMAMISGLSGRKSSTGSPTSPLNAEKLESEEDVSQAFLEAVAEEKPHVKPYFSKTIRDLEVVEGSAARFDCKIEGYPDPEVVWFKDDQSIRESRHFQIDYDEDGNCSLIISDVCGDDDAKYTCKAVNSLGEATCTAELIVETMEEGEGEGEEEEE
Mitogen-activated protein kinase 6, sequence (Q16659 whole entry): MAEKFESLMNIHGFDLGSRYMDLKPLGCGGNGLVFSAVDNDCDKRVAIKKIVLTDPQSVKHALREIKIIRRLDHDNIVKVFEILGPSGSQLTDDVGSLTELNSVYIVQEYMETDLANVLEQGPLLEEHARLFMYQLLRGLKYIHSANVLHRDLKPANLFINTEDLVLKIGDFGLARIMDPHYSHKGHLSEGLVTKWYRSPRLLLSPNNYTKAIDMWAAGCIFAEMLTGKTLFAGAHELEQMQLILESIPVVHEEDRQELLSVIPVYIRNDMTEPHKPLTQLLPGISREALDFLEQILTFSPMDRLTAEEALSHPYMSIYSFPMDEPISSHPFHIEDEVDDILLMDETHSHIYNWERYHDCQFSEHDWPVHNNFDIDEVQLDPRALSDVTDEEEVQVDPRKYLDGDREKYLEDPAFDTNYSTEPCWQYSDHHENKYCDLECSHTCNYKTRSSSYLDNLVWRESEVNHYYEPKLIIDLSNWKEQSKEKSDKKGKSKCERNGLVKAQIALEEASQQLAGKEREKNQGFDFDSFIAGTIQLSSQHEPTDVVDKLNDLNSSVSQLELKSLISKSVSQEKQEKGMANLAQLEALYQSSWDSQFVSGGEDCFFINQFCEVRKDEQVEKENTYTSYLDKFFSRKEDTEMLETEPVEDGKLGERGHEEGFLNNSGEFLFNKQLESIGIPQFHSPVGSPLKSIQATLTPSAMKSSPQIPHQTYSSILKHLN
MAP/microtubule affinity-regulating kinase 3 (Homo sapiens), sequence (P27448 whole entry, looked up): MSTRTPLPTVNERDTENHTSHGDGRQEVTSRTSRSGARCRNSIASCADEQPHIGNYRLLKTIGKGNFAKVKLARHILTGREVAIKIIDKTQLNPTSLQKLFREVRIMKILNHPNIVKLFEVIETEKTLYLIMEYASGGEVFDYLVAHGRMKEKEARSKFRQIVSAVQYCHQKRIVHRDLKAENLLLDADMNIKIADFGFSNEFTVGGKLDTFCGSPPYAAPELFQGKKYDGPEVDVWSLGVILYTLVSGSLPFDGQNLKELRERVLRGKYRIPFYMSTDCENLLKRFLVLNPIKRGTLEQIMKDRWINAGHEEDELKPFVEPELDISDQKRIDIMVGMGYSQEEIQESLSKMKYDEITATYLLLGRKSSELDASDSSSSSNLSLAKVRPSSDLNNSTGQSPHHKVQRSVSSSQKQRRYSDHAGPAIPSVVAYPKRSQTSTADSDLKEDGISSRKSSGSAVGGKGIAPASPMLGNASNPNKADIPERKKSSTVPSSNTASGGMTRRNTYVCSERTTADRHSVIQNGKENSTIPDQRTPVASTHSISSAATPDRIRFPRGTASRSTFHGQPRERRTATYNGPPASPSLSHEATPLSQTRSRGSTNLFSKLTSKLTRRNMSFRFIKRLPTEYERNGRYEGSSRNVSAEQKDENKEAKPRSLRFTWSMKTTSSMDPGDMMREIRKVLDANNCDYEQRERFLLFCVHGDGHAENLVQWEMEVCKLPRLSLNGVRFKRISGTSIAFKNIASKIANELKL

As for `CS(=O)(=O)CCCOc1cccc2c1ccn2-c1ccnc(N[C@H]2CC[C@H](C(=O)N3CCC(O)CC3)CC2)n1`, the inhibition in assay [1] and in assay [2] was greater than 85% throughout.
For `O[C@H]1CC[C@H](Nc2nccc(-n3ccc4ccccc43)n2)CC1`, the inhibition is less than 50% in [3]; less than 50% in assay [4]; less than 50% in assay [5]; less than 50% in [6]; less than 50% in [1]; 99% in assay [2]. Further, the inhibition in assay [7] was 93%; in [8], less than 50%; in assay [9] it was less than 50%; in assay [10], 65%.
Consider `O[C@H]1CC[C@H](Nc2nccc(-n3ncc4ccccc43)n2)CC1`, for which the inhibition in assay [3] was less than 50%; in [4] it was less than 50%; in [5], 80%; in assay [6] it was 88%; in assay [1], 82%; in assay [2] it was 100%. Also, the inhibition in assay [7] was 95%; in assay [8], less than 50%; in assay [9] it was less than 50%; in [10], less than 50%.
Take `O[C@H]1CC[C@H](Nc2nccc(-c3n[nH]c4ccccc34)n2)CC1`: the inhibition in [3] was less than 50%; in assay [5], 96%; in [9], 88%.
Turning to `O[C@H]1CC[C@H](Nc2nccc(-n3nnc4ccccc43)n2)CC1`, the inhibition in assay [3] is less than 50%; in [4], less than 50%; in assay [5], 74%; in assay [6], 94%; in assay [1], 100%; in [2] it was 100%. Also, the inhibition in assay [7] was 97%; in assay [8], less than 50%; in [9], less than 50%; in assay [10], 88%.
